Test: gradient 5% acetonitrile 3 min, to 50% in 2 min, to 85% in 15 min, held 3 min, 100 µL/min
Conditions: column: Zorbax Extend-C18 2.1 x 50 mm; eluents: water / acetonitrile, 0.1% formic acid
Outline: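 Retention time was recorded from adduct peaks, which were picked computationally and each inspected manually. Pure standards ran in mixtures of ~100 molecules on HPLC coupled to a quadrupole time-of-flight mass spectrometer, in positive and negative ionization mode, through a Zorbax Extend-C18 column (2.1 × 50 mm, 1.8 μm) at 100 μL/min. Eluents were water and acetonitrile, each with 0.1% formic acid.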

Row | SMILES | RP-LC retention time
1 | CCC1(C(=O)NCCCN2CCc3ccccc3C2)CCCCC(=O)N1 (centres undefined) | 582 s
2 | CCSCCOC(=O)C1=C(C)NC2=C(C(=O)C(C(=O)OC)C(C)C2)C1c1ccccc1OC (centres undefined) | 967 s
3 | O=C(NCc1ccco1)Nc1ccccc1Cl | 766 s
4 | Cc1sc(-c2cc(C(F)(F)F)on2)cc1S(=O)(=O)NCc1ccccc1Cl | 1140 s
5 | Cc1noc(C2CN(C(=O)Nc3cc(F)cc(F)c3)CC23CCOCC3)n1 (centres undefined) | 726 s
6 | CCNc1cc(-n2ccnc2)ncn1 | 541 s
7 | CC(=O)NCC(=O)NCc1nn(Cc2ccccc2)c2ccccc12 | 679 s
8 | Cc1sc(-c2noc(C3CCC3)n2)cc1NC(=O)c1ccc(C(F)(F)F)cc1 | 1150 s
9 | CCc1nnc(-c2ccc3ccn(CC(=O)Nc4ccc5c(c4)OCO5)c3c2)o1 | 794 s
10 | Cc1cc(C)cc(NC(=O)Cn2c(=O)n(-c3cccc(C)c3)c(=O)c3c2cc(C)n3C)c1 | 882 s
11 | CC(C)OCCCNC(=O)CN1c2ccc(Br)cc2-c2ccccc2S1(=O)=O | 961 s
12 | Cc1ccc(C)c(NC(=O)C2CCN(S(=O)(=O)c3ccc4c(c3)CCCC(=O)N4)CC2)c1 | 768 s
13 | O=C(O)c1nnn(-c2ccc3c(c2)OCCO3)c1-c1ccccn1 | 640 s
14 | O=C(c1ccc(Cl)cc1)N1CCC2(CC1)N=C(c1ccccc1)NO2 | 824 s
15 | Cc1cc(C)cc(NC(=O)N2CCCC2c2nc(-c3ccccc3)no2)c1 (centres undefined) | 922 s
16 | CNC(=O)c1csc(N2CCCC2)n1 | 671 s
17 | CCCn1cc(CCNC(=O)Nc2cc(Cl)ccc2C)c2cccnc21 | 863 s
18 | COCCCNC(=O)c1ccc2c(c1)CCCN2S(=O)(=O)c1ccccc1 | 822 s
19 | Cn1cc2c(n1)c(=O)n(Cc1ccc(F)cc1)c1nn(Cc3ccccc3F)c(=O)n21 | 1020 s
20 | CCCC(=O)Nc1cc2c(cc1S(=O)(=O)c1ccc(C)cc1)n(C)c(=O)n2C | 824 s
21 | CCS(=O)(=O)N1CC(=O)N(c2cccc(C)c2C)C(C)(C(=O)NC2CCCCCC2)C1 (centres undefined) | 930 s
22 | CCc1ccc(NC(=O)N2CCC(OC3CCN(S(C)(=O)=O)CC3)CC2)cc1 | 770 s
23 | Cc1ccc(O)c(NC(=O)c2nc3nc(C)cc(C(F)F)n3n2)c1 | 762 s

Row | SMILES | RP-LC retention time
24 | COCCN1C(=O)CCc2cc(NC(=O)c3cncc(Br)c3)ccc21 | 716 s
25 | O=c1oc2cc(O)ccc2cc1-c1cc(F)cc(F)c1 | 908 s
26 | O=C(NC1(c2nc(-c3cccnc3)no2)CCCCC1)c1cc(C2CC2)[nH]n1 | 700 s
27 | CCOC(=O)c1[nH]c(C)c(CCC(=O)N2CCC(C(=O)NC3CCCC3)CC2)c1C | 729 s
28 | COc1ccc(C2CC(=O)N(c3ccc(C)cc3C)C(=O)C2)cc1OC | 889 s
29 | CN1C(=O)[C@H]2CN(Cc3ccccc3OC(F)(F)F)C[C@H]2C1=O | 691 s
30 | O=C(Cn1ncccc1=O)N1CCN(c2ccc(-c3ccco3)nn2)CC1 | 552 s
31 | O=C(CN1CCN(C(=O)COc2ccc(Cl)cc2Cl)CC1)c1cccs1 | 630 s
32 | COc1ccc(-c2c(C(=O)Nc3cccc(C(C)=O)c3)nc3ccccn23)cc1 | 937 s
33 | c1cc2c(cc1-c1nnc(C3CCC3)o1)OCO2 | 865 s
34 | C=CCN(Cc1nc(-c2cccc(C)c2)no1)C(=O)Nc1ccccc1OC | 1120 s
35 | Cc1ccc(C)c(N2CCN(C(=O)C3CCN(c4nccnc4Sc4ccccc4)CC3)CC2)c1 | 1320 s
36 | O=C(c1cc(-c2ccncc2)n[nH]1)N1CCC(C(=O)N2CCc3ccccc3C2)CC1 | 614 s
37 | COc1cccc(N2C(=O)C3N=NN(Cc4nc(-c5ccccc5C)no4)C3C2=O)c1 (centres undefined) | 976 s
38 | COC(=O)c1c(C)[nH]c(C(=O)N2CCC(CC(=O)NCCC3=CCCCC3)CC2)c1C | 787 s
39 | COCCN1C(=O)[C@H]2CN(Cc3ccccc3OC(F)(F)F)C[C@H]2C1=O | 743 s
40 | CC(C)NC(=O)CC1CCN(C(=O)c2cc3cc(Cl)ccc3[nH]2)CC1 | 773 s
41 | COc1ccccc1NC(=O)N1CCCC1c1nc(-c2cccc(Cl)c2)no1 (centres undefined) | 941 s
42 | CC(C)Cn1cc(S(=O)(=O)N2CCc3ccccc3C2)c2cccnc21 | 784 s
43 | O=C(Nc1ccc(S(=O)(=O)N2CCCCC2c2cccnc2)cc1)C1CCCCC1 (centres undefined) | 654 s
44 | O=C1NC2(CCN(C(=O)NCc3ccc(F)cc3)CC2)Nc2c(Cl)cccc21 | 770 s
45 | CCn1nccc1C(=O)NCC1Cn2cccc2C(=O)N1C (centres undefined) | 605 s
46 | C=Cc1ccc(CN2C(=O)N(c3ccc(F)cc3)c3ncccc3S2(=O)=O)cc1 | 886 s

Row | SMILES | RP-LC retention time
47 | COc1ccc(CNC(=O)C2(C)CCN(S(=O)(=O)c3cccc(Cl)c3C)CC2)cc1 | 1030 s
48 | CC(C)CN1CCN(C(=O)CN2CCN(Cc3ccc(F)cc3Cl)C2=O)CC1 | 634 s
49 | O=C(NC1CCCCC1)C1CCCN(c2ncnc3c2nc2n3CCCCC2)C1 (centres undefined) | 778 s
50 | CCN(CC)S(=O)(=O)c1cc(-c2nnc(-c3ccccc3OC)o2)ccc1OC | 903 s
51 | CNC(=O)c1cc(N(C)C)nc2c(Cl)cccc12 | 666 s
52 | O=S(=O)(NC1(c2nc(-c3ccsc3)no2)CCCCC1)c1ccc2c(c1)OCCO2 | 954 s
53 | Cc1ccc(S(=O)(=O)Cc2cccc(-c3nc(-c4ccc5c(c4)oc(=O)n5C)no3)c2)cc1 | 1030 s
54 | Fc1ccccc1C(c1nnc(-c2ccccc2)o1)N1CCN(c2ccccn2)CC1 (centres undefined) | 704 s
55 | CC(Oc1ccc(-c2cnc3ccccc3n2)cc1)C(=O)N1CCOCC1 (centres undefined) | 751 s
56 | CCN1c2ccc(C)cc2C(=O)NC12CCN(C(=O)c1ccc(OC)cc1OC)CC2 | 774 s
57 | CCCNC(=O)c1ccc2c(c1)N(C)C(=O)CS2 | 843 s
58 | O=C(c1cccc(Cl)c1)N1CCN(c2cc(-c3ccccc3)[nH]n2)CC1 | 763 s
59 | Cc1cc(Cl)ccc1NC(=O)Cn1ccc2sccc2c1=O | 764 s
60 | CCN(Cc1ccccc1)S(=O)(=O)c1c(C)c(-c2nnc(C3CCC3)o2)n(C)c1C | 1130 s
61 | CCc1cc(=O)n(CC(=O)N2CCN(c3ccc(OC)cc3)CC2)c(N2CCOCC2)n1 | 668 s
62 | COc1ccc(C2(C(=O)N3CCN(C(=O)N4C[C@H]5C[C@H](C4)[C@H]4CCCC(=O)N4C5)CC3)CC2)cc1 | 696 s
63 | CC1Oc2ccc(-c3csc(NC(=O)c4ccc(Cl)cc4)n3)cc2N(C)C1=O (centres undefined) | 1040 s
64 | CCNC(=O)C1CCN(c2nc3ncn(CC(=O)Nc4ccc(C)cc4C)c(=O)c3s2)CC1 | 675 s
65 | CN1CCN(CCNC(=O)C2CCN(c3nc4ccccc4n(C)c3=O)CC2)CC1 | 588 s
66 | Cc1ccc2ncn(C3CCN(S(=O)(=O)c4ccccc4C)CC3)c(=O)c2c1 | 929 s
67 | Cc1cccc(Nc2c(-c3cc(Br)ccc3O)nc3ncccn23)c1 | 1020 s
68 | CCCn1cnnc1C1CCCCN1S(=O)(=O)c1cccc(C#N)c1 (centres undefined) | 748 s
69 | COc1ccc(OC)c(-c2cn3ccn(-c4cc(C)cc(C)c4)c(=O)c3n2)c1 | 975 s

Row | SMILES | RP-LC retention time
70 | Cc1ccc(CNC(=O)N(C)CCc2noc(COc3cccc(C)c3)n2)cc1 | 956 s
71 | CCOC(=O)c1c(C)[nH]c(C(=O)N2CCCC(C(=O)NC3CCCCCC3)C2)c1C (centres undefined) | 892 s
72 | COc1ccccc1-c1cc2nc(C)cc(NCC3CCCO3)n2n1 (centres undefined) | 592 s
73 | O=C(Nc1cnc(N2CCOCC2)nc1)c1ccc(F)cc1Cl | 743 s
74 | CCOc1ccc(NC(=O)Cn2c(C)nc3c(sc4nc(-c5ccccc5)ccc43)c2=O)cc1 | 1070 s
75 | NC(=O)c1ccc(Cl)c2ccccc12 | 777 s
76 | c1ccc(C2(c3nc(-c4ccc(-n5cccn5)nc4)no3)CC2)cc1 | 1240 s
77 | O=C(Cc1ccsc1)NCCC1CCN(C(=O)Nc2cc(F)ccc2F)CC1 | 915 s
78 | COc1ccccc1CCC(=O)Nc1ccc2c(c1)Sc1ncccc1C(=O)N2C(C)C | 922 s
79 | O=C(NCc1ccc2c(c1)OCO2)C1CCCN(c2ncc(-c3ccccc3)cn2)C1 (centres undefined) | 992 s
80 | CCOC(=O)C1CCN(c2cc(C)nc3nc(-c4ccc(OC)cc4)nn23)CC1 | 881 s
81 | Cc1cc(C(=O)N2CCCCC2c2nncn2-c2ccccc2)nn1C (centres undefined) | 647 s
82 | CCn1cc(CCNS(=O)(=O)c2ccccc2F)c2cccnc21 | 745 s
83 | CCNC(=O)C1CCCN(c2nc3ncn(CC(=O)NC4CCCCC4)c(=O)c3s2)C1 (centres undefined) | 658 s
84 | CCC(CC)C(=O)N(C)CCc1noc(-c2ccc(C(=O)N3CCCC3)cc2)n1 | 796 s
85 | Cc1cccc(CN2C(=O)CN(S(C)(=O)=O)CC2(C)C(=O)NCc2ccccc2)c1 (centres undefined) | 838 s
86 | CCS(=O)(=O)N1CC(=O)N(c2ccc(C)c(C)c2)C(C)(C(=O)NCc2ccc(F)cc2)C1 (centres undefined) | 846 s
87 | Cc1cc(C)nc(N2CCC(NC(=O)c3cccc4nccnc34)CC2)n1 | 650 s
88 | O=C(Cn1cccc1-c1nnc(C2CCC2)o1)N1CCN(Cc2ccc3c(c2)OCO3)CC1 | 688 s
89 | Cn1c(=O)c2c(Nc3ccc(C(F)(F)F)cc3)ccnc2n(C)c1=O | 1010 s

— the METLIN SMRT retention time set (Domingo-Almenara et al. 2019)
